Experimental data taken from patent publication US20110319811A1 (priority 2010, published 2011).
Where two headings read alike, the source gives them in different places.

Test: Pharmacokinetic study GW01-0706 under maximal use conditions (serum imiquimod)
Format: in vivo, human
Description: An open label, single center, non-randomized pharmacokinetic (PK) study in adult subjects diagnosed with actinic keratosis (“AK”) is conducted. […] The study is conducted under maximal use conditions (dose, duration, disease severity, and application areas) in a population that had at least 10 AK lesions in the application area. The application area is the entire face (exclusive of nares, vermilion, periocular areas and ears) and/or the entire balding scalp; areas estimated as approximately 200 cm^2. If the area of the entire balding scalp is less than 200 cm^2, the forehead area is included in order for the entire treatment area to be approximately 200 cm^2.
Subjects stay at the study center overnight at treatment initiation (Day 1, 1st dose), and end of treatment (Day 21, last dose) visits for collection of a 24-hour serum PK profile. […] Single serum samples for PK analyses of trough concentrations are obtained at Day 7 and Day 14 (in the morning prior to dosing).
Adverse events, study medication accountability, and dosing compliance are reviewed at each visit. Routine clinical laboratory assessments (serum chemistry, hematology and urinalysis) are performed at Screening, Day 1 (predose), and the end of study visits.
Trough serum concentrations are obtained on Days 7, 14, 21, and 22. The trough concentrations on Days 7 and 14 are obtained during outpatient treatment while the trough concentrations on Days 21 and 22 are obtained while the subjects are dosed in the clinical research facility.

[1] = Steady-State (Day 21), 3.75% imiquimod cream 2 packets daily

- Imiquimod trough concentration, Geometric LS Mean Reference (Day 21/14 comparison (Reference = Day 14), subjects with paired, non-zero data, 3.75% imiquimod cream 2 packets daily): 0.1344 ng/mL
- Imiquimod trough concentration, Geometric LS Mean Test (Day 21/14 comparison (Test = Day 21), subjects with paired, non-zero data, 3.75% imiquimod cream 2 packets daily): 0.1791 ng/mL
- λz, Geometric Mean [1]: 0.027 h⁻¹
- λz, Mean [1]: 0.029 h⁻¹
- λz, Median [1]: 0.0271 h⁻¹
- concentration at 7 day (trough) (human, topical): 0.128 ng/mL
- concentration at 14 day (trough) (human, topical): 0.139 ng/mL
- concentration at 21 day (trough) (human, topical): 0.179 ng/mL
- concentration at 22 day (trough) (human, topical): 0.167 ng/mL
- AUC(0-t) (human, topical, Steady-State (Day 21), 3.75% imiquimod cream 2 packets daily, read-out: AUC0-24, Geometric Mean): 5.03 ng·h/mL
- AUC(0-t) (human, topical, Steady-State (Day 21), 3.75% imiquimod cream 2 packets daily, read-out: AUC0-24, Mean): 5.97 ng·h/mL
- AUC(0-t) (human, topical, Steady-State (Day 21), 3.75% imiquimod cream 2 packets daily, read-out: AUC0-24, Median): 7.02 ng·h/mL
- Cmax (human, topical, Steady-State (Day 21), 3.75% imiquimod cream 2 packets daily, read-out: Cmax, Geometric Mean): 0.274 ng/mL
- Cmax (human, topical, Steady-State (Day 21), 3.75% imiquimod cream 2 packets daily, read-out: Cmax, Mean): 0.323 ng/mL
- Cmax (human, topical, Steady-State (Day 21), 3.75% imiquimod cream 2 packets daily, read-out: Cmax, Median): 0.35 ng/mL
SMILES: CC(C)Cn1cnc2c(N)nc3ccccc3c21 [imiquimod, 1-isobutyl-1H-imidazo[4,5-c]-quinolin-4-amine]
